These are literature values, as cited in patent US20250302750A1, “PHARMACEUTICAL COMPOSITION OF BEMPEDOIC ACID” (Renata Pharmaceuticals (Ireland) Ltd, priority 2022, published 2025).

Each structure is given as a SMILES string.

The conditions of data set [1]: solid state; per US 20180338922.

Consider `CC(C)(CCCCCC(O)CCCCCC(C)(C)C(=O)O)C(=O)O` [Bempedoic acid], for which the Solubility in water result is “poorly soluble”. Moreover, in data set [1], the Flow characteristics result is listed as “poor flow characteristics” and the Stickiness result was “very sticky”.
